# Data as given in article PMC9868654, “Discovery of a potent olaparib–chlorambucil hybrid inhibitor of PARP1 for the treatment of cancer” (Frontiers in Pharmacology, 2023).
# Tests used:
# PARP1 = PARP1 (Homo sapiens, UniProt P09874); assay: PARP1 enzyme inhibitory assay; type: biochemical; conditions: mean of three experiments
# Hela cells = assay: In vitro antiproliferative assay (CCK-8); type: cell-based; conditions: Homo sapiens, without BRCA mutations, CCK-8, 72 h, mean of three
# Description: (§1) The proliferation of cancer cells was tested by CCK-8 assay. Briefly, cells were seeded in 96-well plates at approximately 5 × 10^3 cells per well. The cells were treated with test compounds after 24 h of incubation. CCK-8 reagent ([…]) was added to each well after 72 h of incubation, and the cells were then incubated at 37°C for 4 h. The light absorbance at 450 nm was measured using an Opsys microplate reader (Dynex Technologies, Chantilly, VA, United States). Results are illustrated as percentage viability normalized to DMSO-treated control cells.
# K562 cells = assay: In vitro antiproliferative assay (CCK-8); type: cell-based; conditions: Homo sapiens; K562, without BRCA mutations; CCK-8, 72 h; mean of three
# Description: as §1
# SW620 cells = assay: In vitro antiproliferative assay (CCK-8); type: cell-based; conditions: Homo sapiens, SW-620; SW620, without BRCA mutations; CCK-8, 72 h; mean of three
# Description: as §1
# U251 cells = assay: In vitro antiproliferative assay (CCK-8); type: cell-based; conditions: Homo sapiens, U-251; U251, without BRCA mutations; CCK-8, 72 h; mean of three
# Description: as §1
# HCC1937 cells = assay: In vitro antiproliferative assay (CCK-8); type: cell-based; conditions: Homo sapiens; HCC1937, BRCA-mutated; CCK-8, 72 h; mean of three
# Description: as §1
# MDA-MB-231 cells = assay: In vitro antiproliferative assay (CCK-8); type: cell-based; conditions: Homo sapiens; MDA-MB-231, without BRCA mutations; CCK-8, 72 h; mean of three
# Description: as §1
# MDA-MB-436 cells = assay: In vitro antiproliferative assay (CCK-8); type: cell-based; conditions: Homo sapiens; MDA-MB-436, BRCA-mutated; CCK-8, 72 h; mean of three
# Description: as §1
# A549 cells = assay: In vitro antiproliferative assay (CCK-8); type: cell-based; conditions: Homo sapiens; A549, without BRCA mutations; CCK-8, 72 h; mean of three
# Description: as §1
# SKOV3 cells = assay: In vitro antiproliferative assay (CCK-8); type: cell-based; conditions: Homo sapiens, SK-OV-3; SKOV3, without BRCA mutations; CCK-8, 72 h; mean of three
# Description: as §1
# CH151 cells = assay: In vitro antiproliferative assay (CCK-8); type: cell-based; conditions: CH151, without BRCA mutations; CCK-8, 72 h; mean of three
# Description: as §1
# MCF-7 cells = assay: In vitro antiproliferative assay (CCK-8); type: cell-based; conditions: Homo sapiens, MCF7; MCF-7, without BRCA mutations; CCK-8, 72 h; mean of three
# Description: as §1
# 8226 cells = assay: In vitro antiproliferative assay (CCK-8); type: cell-based; conditions: 8226, without BRCA mutations; CCK-8, 72 h; mean of three
# Description: as §1
# U87 cells = assay: In vitro antiproliferative assay (CCK-8); type: cell-based; conditions: Homo sapiens, U-87 MG; U87, without BRCA mutations; CCK-8, 72 h; mean of three
# Description: as §1
# Capan-1 cells = assay: In vitro antiproliferative assay (CCK-8); type: cell-based; conditions: Homo sapiens; Capan-1, BRCA-mutated; CCK-8, 72 h; mean of three
# Description: as §1
# B16 cells = assay: In vitro antiproliferative assay (CCK-8); type: cell-based; conditions: Mus musculus; B16, without BRCA mutations; CCK-8, 72 h; mean of three
# Description: as §1
# Raji cells = assay: In vitro antiproliferative assay (CCK-8); type: cell-based; conditions: Homo sapiens, without BRCA mutations, CCK-8, 72 h, mean of three
# Description: as §1
# Sequence of PARP1 (P09874 whole entry): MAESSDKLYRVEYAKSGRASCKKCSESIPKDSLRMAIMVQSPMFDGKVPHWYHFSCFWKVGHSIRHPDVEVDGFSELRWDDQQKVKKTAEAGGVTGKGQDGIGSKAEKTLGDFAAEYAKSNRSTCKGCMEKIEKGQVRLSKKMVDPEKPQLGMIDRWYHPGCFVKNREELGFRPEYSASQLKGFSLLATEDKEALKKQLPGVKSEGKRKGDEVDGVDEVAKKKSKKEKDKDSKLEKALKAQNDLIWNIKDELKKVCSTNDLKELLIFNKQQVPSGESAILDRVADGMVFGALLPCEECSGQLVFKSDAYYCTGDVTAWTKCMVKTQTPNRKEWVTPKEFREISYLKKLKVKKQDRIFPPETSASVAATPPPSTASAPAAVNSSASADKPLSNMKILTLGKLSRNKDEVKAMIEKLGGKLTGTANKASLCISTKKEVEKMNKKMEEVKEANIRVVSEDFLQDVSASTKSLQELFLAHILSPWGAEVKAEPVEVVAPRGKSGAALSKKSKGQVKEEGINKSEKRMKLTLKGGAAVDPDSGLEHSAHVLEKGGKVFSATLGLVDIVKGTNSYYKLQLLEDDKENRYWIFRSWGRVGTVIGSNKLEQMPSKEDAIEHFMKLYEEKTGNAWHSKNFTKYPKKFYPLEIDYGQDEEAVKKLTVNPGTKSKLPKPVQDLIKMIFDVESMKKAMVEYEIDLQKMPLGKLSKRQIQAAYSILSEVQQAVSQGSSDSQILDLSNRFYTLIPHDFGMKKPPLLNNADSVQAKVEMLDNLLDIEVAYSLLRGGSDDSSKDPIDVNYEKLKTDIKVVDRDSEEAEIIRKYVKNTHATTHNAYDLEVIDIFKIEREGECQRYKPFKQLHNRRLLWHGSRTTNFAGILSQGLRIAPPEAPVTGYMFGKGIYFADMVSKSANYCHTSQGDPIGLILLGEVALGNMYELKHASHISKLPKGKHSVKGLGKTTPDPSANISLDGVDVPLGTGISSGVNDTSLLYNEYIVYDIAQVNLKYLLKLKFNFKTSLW
structure (smiles),measurement,setting,value
"O=C(c1ccccc1C(F)(F)F)N1CCN(Cc2cc(Cc3n[nH]c(=O)c4ccccc34)ccc2F)CC1 [A5, 4-(4-Fluoro-3-((4-(2-(trifluoromethyl)benzoyl)piperazin-1-yl)methyl)benzyl)phthalazin-1(2H)-one]",IC50,"PARP1; Table 1, A series",33.2 ± 3.1 nM
"CCCCNNC(=O)c1cc(Cc2n[nH]c(=O)c3ccccc23)ccc1F [B3, N′-butyl-2-fluoro-5-((4-oxo-3,4-dihydrophthalazin-1-yl)methyl)benzohydrazide]",IC50,"PARP1; Table 2, B and C series",2.8 ± 0.1 nM
same,IC50,Hela cells,> 100 µM
same,IC50,K562 cells,> 20 µM
same,IC50,SW620 cells,> 100 µM
same,IC50,U251 cells,> 100 µM
same,IC50,HCC1937 cells,> 1000 nM
same,IC50,MDA-MB-231 cells,> 100 µM
same,IC50,MDA-MB-436 cells,> 1000 nM
same,IC50,A549 cells,> 100 µM
same,IC50,SKOV3 cells,> 100 µM
same,IC50,CH151 cells,> 100 µM
same,IC50,MCF-7 cells,> 100 µM
same,IC50,8226 cells,> 100 µM
same,IC50,U87 cells,> 100 µM
same,IC50,Capan-1 cells,> 1000 nM
same,IC50,B16 cells,> 100 µM
same,IC50,Raji cells,> 100 µM
"O=C(c1ccc(F)cc1)N1CCN(Cc2cc(Cc3n[nH]c(=O)c4ccccc34)ccc2F)CC1 [A1, 4-(4-Fluoro-3-((4-(4-fluorobenzoyl)piperazin-1-yl)methyl)benzyl)phthalazin-1(2H)-one]",IC50,"PARP1; Table 1, A series",31.2 ± 2.4 nM
"O=C(c1ccc2c(c1)OCO2)N1CCN(Cc2cc(Cc3n[nH]c(=O)c4ccccc34)ccc2F)CC1 [A20, 4-(3-((4-(Benzo[d][1,3]dioxole-5-carbonyl)piperazin-1-yl)methyl)-4-fluorobenzyl)phthalazin-1(2H)-one]",IC50,"PARP1; Table 1, A series",12.6 ± 0.9 nM
"O=C(c1cccc(Br)c1)N1CCN(Cc2cc(Cc3n[nH]c(=O)c4ccccc34)ccc2F)CC1 [A8, 4-(3-((4-(3-Bromobenzoyl)piperazin-1-yl)methyl)-4-fluorobenzyl)phthalazin-1(2H)-one]",IC50,"PARP1; Table 1, A series",22.5 ± 2.1 nM
"O=C(c1ccccc1F)N1CCN(Cc2cc(Cc3n[nH]c(=O)c4ccccc34)ccc2F)CC1 [A2, 4-(4-Fluoro-3-((4-(2-fluorobenzoyl)piperazin-1-yl)methyl)benzyl)phthalazin-1(2H)-one]",IC50,"PARP1; Table 1, A series",29.4 ± 2.2 nM
"O=c1[nH]nc(Cc2ccc(F)c(CN3CCN(Cc4ccc5c(c4)OCO5)CC3)c2)c2ccccc12 [A15, 4-(3-((4-(Benzo[d][1,3]dioxol-5-ylmethyl)piperazin-1-yl)methyl)-4-fluorobenzyl)phthalazin-1(2H)-one]",IC50,"PARP1; Table 1, A series",> 50 nM
"O=C(c1ccccc1)N1CCN(Cc2cc(Cc3n[nH]c(=O)c4ccccc34)ccc2F)CC1 [A12, 4-(3-((4-Benzoylpiperazin-1-yl)methyl)-4-fluorobenzyl)phthalazin-1(2H)-one]",IC50,"PARP1; Table 1, A series",> 50 nM
"O=C(c1ccccc1Cl)N1CCN(Cc2cc(Cc3n[nH]c(=O)c4ccccc34)ccc2F)CC1 [A7, 4-(3-((4-(2-Chlorobenzoyl)piperazin-1-yl)methyl)-4-fluorobenzyl)phthalazin-1(2H)-one]",IC50,"PARP1; Table 1, A series",24.6 ± 2.1 nM
"O=c1[nH]nc(Cc2ccc(F)c(CN3CCC(N4CCCCC4)CC3)c2)c2ccccc12 [A16, 4-(3-([1,4′-Bipiperidin]-1′-ylmethyl)-4-fluorobenzyl)phthalazin-1(2H)-one]",IC50,"PARP1; Table 1, A series",> 50 nM
"CCc1ccc(C(=O)N2CCN(Cc3cc(Cc4n[nH]c(=O)c5ccccc45)ccc3F)CC2)cc1 [A10, 4-(3-((4-(4-Ethylbenzoyl)piperazin-1-yl)methyl)-4-fluorobenzyl)phthalazin-1(2H)-one]",IC50,"PARP1; Table 1, A series",21.4 ± 1.4 nM
"O=C(C1CCC(F)(F)CC1)N1CCN(Cc2cc(Cc3n[nH]c(=O)c4ccccc34)ccc2F)CC1 [A22, 4-(3-((4-(4,4-Difluorocyclohexane-1-carbonyl)piperazin-1-yl)methyl)-4-fluorobenzyl) phthalazin-1(2H)-one]",IC50,"PARP1; Table 1, A series",9.3 ± 0.3 nM
"CC(C)CNNC(=O)c1cc(Cc2n[nH]c(=O)c3ccccc23)ccc1F [B4, 2-Fluoro-N′-isobutyl-5-((4-oxo-3,4-dihydrophthalazin-1-yl)methyl)benzohydrazide]",IC50,"PARP1; Table 2, B and C series",11.8 ± 1.3 nM
"O=C(C1CCCCC1)N1CCN(Cc2cc(Cc3n[nH]c(=O)c4ccccc34)ccc2F)CC1 [A23, 4-(3-((4-(Cyclohexanecarbonyl)piperazin-1-yl)methyl)-4-fluorobenzyl)phthalazin-1(2H)-one]",IC50,"PARP1; Table 1, A series",10.1 ± 0.6 nM
"O=C(c1ccc(C(F)(F)F)cc1)N1CCN(Cc2cc(Cc3n[nH]c(=O)c4ccccc34)ccc2F)CC1 [A4, 4-(4-Fluoro-3-((4-(4-(trifluoromethyl)benzoyl)piperazin-1-yl)methyl)benzyl)phthalazin-1(2H)-one]",IC50,"PARP1; Table 1, A series",42.2 ± 4.1 nM
"NC(=O)C1CCN(Cc2cc(Cc3n[nH]c(=O)c4ccccc34)ccc2F)CC1 [A14, 1-(2-Fluoro-5-((4-oxo-3,4-dihydrophthalazin-1-yl)methyl)benzyl)piperidine-4-carboxamide]",IC50,"PARP1; Table 1, A series",> 50 nM
"CCCCCNNC(=O)c1cc(Cc2n[nH]c(=O)c3ccccc23)ccc1F [B5, 2-Fluoro-5-((4-oxo-3,4-dihydrophthalazin-1-yl)methyl)-N′-pentylbenzohydrazide]",IC50,"PARP1; Table 2, B and C series",5.2 ± 0.4 nM
"Cc1ccccc1C(=O)N1CCN(Cc2cc(Cc3n[nH]c(=O)c4ccccc34)ccc2F)CC1 [A9, 4-(4-Fluoro-3-((4-(2-methylbenzoyl)piperazin-1-yl)methyl)benzyl)phthalazin-1(2H)-one]",IC50,"PARP1; Table 1, A series",12.6 ± 1.1 nM
"O=c1[nH]nc(Cc2ccc(F)c(CN3CCC(Cc4ccccc4)CC3)c2)c2ccccc12 [A18, 4-(3-((4-Benzylpiperidin-1-yl)methyl)-4-fluorobenzyl)phthalazin-1(2H)-one]",IC50,"PARP1; Table 1, A series",> 50 nM
"O=C(c1cccc(C(F)(F)F)c1)N1CCN(Cc2cc(Cc3n[nH]c(=O)c4ccccc34)ccc2F)CC1 [A6, 4-(4-Fluoro-3-((4-(3-(trifluoromethyl)benzoyl)piperazin-1-yl)methyl)benzyl)phthalazin-1(2H)-one]",IC50,"PARP1; Table 1, A series",> 50 nM
"COC(=O)C1CCN(Cc2cc(Cc3n[nH]c(=O)c4ccccc34)ccc2F)CC1 [A17, Methyl1-(2-fluoro-5-((4-oxo-3,4-dihydrophthalazin-1-yl)methyl)benzyl)piperidine-4-carboxylate]",IC50,"PARP1; Table 1, A series",> 50 nM
"O=C(c1cccc(F)c1)N1CCN(Cc2cc(Cc3n[nH]c(=O)c4ccccc34)ccc2F)CC1 [A3, 4-(4-Fluoro-3-((4-(3-fluorobenzoyl)piperazin-1-yl)methyl)benzyl)phthalazin-1(2H)-one]",IC50,"PARP1; Table 1, A series",17.6 ± 1.3 nM
"COc1ccc(C(=O)N2CCN(Cc3cc(Cc4n[nH]c(=O)c5ccccc45)ccc3F)CC2)cc1 [A13, 4-(4-Fluoro-3-((4-(4-methoxybenzoyl)piperazin-1-yl)methyl)benzyl)phthalazin-1(2H)-one]",IC50,"PARP1; Table 1, A series",> 50 nM
"O=C(C1CC1)N1CCN(Cc2cc(Cc3n[nH]c(=O)c4ccccc34)ccc2F)CC1 [A21, 4-(3-((4-(Cyclopropanecarbonyl)piperazin-1-yl)methyl)-4-fluorobenzyl)phthalazin-1(2H)-one]",IC50,"PARP1; Table 1, A series",8.4 ± 0.4 nM
"O=C(c1ccc(N(CCCl)CCCl)cc1)N1CCN(C(=O)c2cc(Cc3n[nH]c(=O)c4ccccc34)ccc2F)CC1 [C1, 4-(3-(4-(4-(Bis(2-chloroethyl)amino)benzoyl)piperazine-1-carbonyl)-4-fluorobenzyl) phthalazin-1(2H)-one]",IC50,"PARP1; Table 2, B and C series",1.2 ± 0.11 nM
same,IC50,Hela cells,> 100 µM
same,IC50,K562 cells,> 20 µM
same,IC50,SW620 cells,> 100 µM
same,IC50,U251 cells,> 100 µM
same,IC50,HCC1937 cells,360 ± 20 nM
same,IC50,MDA-MB-231 cells,> 100 µM
same,IC50,MDA-MB-436 cells,18 ± 2 nM
same,IC50,A549 cells,14.1 ± 1.1 µM
same,IC50,SKOV3 cells,> 100 µM
same,IC50,CH151 cells,> 100 µM
same,IC50,MCF-7 cells,> 100 µM
same,IC50,8226 cells,> 100 µM
same,IC50,U87 cells,> 100 µM
same,IC50,Capan-1 cells,105 ± 10 nM
same,IC50,B16 cells,> 100 µM
same,IC50,Raji cells,> 100 µM
"COc1ccccc1C(=O)N1CCN(Cc2cc(Cc3n[nH]c(=O)c4ccccc34)ccc2F)CC1 [A11, 4-(4-Fluoro-3-((4-(2-methoxybenzoyl)piperazin-1-yl)methyl)benzyl)phthalazin-1(2H)-one]",IC50,"PARP1; Table 1, A series",29.4 ± 2.3 nM
"CCCCCCNNC(=O)c1cc(Cc2n[nH]c(=O)c3ccccc23)ccc1F [B6, 2-Fluoro-N′-hexyl-5-((4-oxo-3,4-dihydrophthalazin-1-yl)methyl)benzohydrazide]",IC50,"PARP1; Table 2, B and C series",9.4 ± 0.8 nM
